Reference: the CombiSolv-Exp solvation set (Vermeire and Green 2021)
Each block holds one compound with its values, some of them ahead of it.

Experiment: solvent given as SMILES

SMILES: CCC(C)Br (stereo unspecified)
solvation free energy, 298 K (in C=CCCCCCCCCCCCCCC): -3.96 kcal/mol | solvation free energy, 298 K (in O): -0.27 kcal/mol

SMILES: c1ccc2c(c1)-c1cccc3cccc-2c13
solvation free energy, 298 K (in C1COCCO1): -13 kcal/mol | solvation free energy, 298 K (in CC(=O)N(C)C): -13.2 kcal/mol | solvation free energy, 298 K (in CC(C)CC(C)(C)C): -11.2 kcal/mol | solvation free energy, 298 K (in CC(C)CC(C)O): -11.2 kcal/mol | solvation free energy, 298 K (in CC(C)CCO): -11.2 kcal/mol | solvation free energy, 298 K (in CC(C)CO): -11.1 kcal/mol | solvation free energy, 298 K (in CC(C)O): -11.1 kcal/mol | solvation free energy, 298 K (in CCC(C)(C)O): -11.3 kcal/mol | solvation free energy, 298 K (in CCC(C)O): -11.2 kcal/mol | solvation free energy, 298 K (in CCCC(C)CO): -11.4 kcal/mol | solvation free energy, 298 K (in CCCC(C)O): -11.4 kcal/mol | solvation free energy, 298 K (in CCCCC(CC)CO): -11.5 kcal/mol | solvation free energy, 298 K (in CCCCCC): -11.5 kcal/mol | solvation free energy, 298 K (in CCCCCCC): -11.6 kcal/mol | solvation free energy, 298 K (in CCCCCCCC): -11.6 kcal/mol | solvation free energy, 298 K (in CCCCCCCCC=CCCCCCCCC(=O)OCC(COC(=O)CCCCCCCC=CCCCCCCCC)OC(=O)CCCCCCCC=CCCCCCCCC): -12.2 kcal/mol | solvation free energy, 298 K (in CCCCCCCCCC): -11.7 kcal/mol | solvation free energy, 298 K (in CCCCCCCCO): -11.8 kcal/mol | solvation free energy, 298 K (in CCCCCCCO): -11.9 kcal/mol | solvation free energy, 298 K (in CCCCCCO): -11.7 kcal/mol | solvation free energy, 298 K (in CCCCCO): -11.6 kcal/mol | solvation free energy, 298 K (in CCCCCl): -12.8 kcal/mol | solvation free energy, 298 K (in CCCCO): -11.5 kcal/mol | solvation free energy, 298 K (in CCCCOC(C)=O): -12.7 kcal/mol | solvation free energy, 298 K (in CCCCOCCCC): -12.1 kcal/mol | solvation free energy, 298 K (in CCCO): -11.3 kcal/mol | solvation free energy, 298 K (in CCO): -11.4 kcal/mol | solvation free energy, 298 K (in CCOC(C)=O): -12.7 kcal/mol | solvation free energy, 298 K (in CCOCC): -12.4 kcal/mol | solvation free energy, 298 K (in CN(C)C=O): -13.2 kcal/mol | solvation free energy, 298 K (in CO): -11.2 kcal/mol | solvation free energy, 298 K (in COC(C)(C)C): -12.2 kcal/mol | solvation free energy, 298 K (in ClC(Cl)(Cl)Cl): -12.7 kcal/mol | solvation free energy, 298 K (in ClC(Cl)Cl): -13 kcal/mol | solvation free energy, 298 K (in ClCCCl): -13 kcal/mol | solvation free energy, 298 K (in O): -4.69 kcal/mol

SMILES: C=CC(C)(O)CCC=C(C)C (stereo unspecified)
solvation free energy, 298 K (in O): -4.17 kcal/mol

SMILES: c1ccoc1
solvation free energy, 298 K (in CC(=O)N(C)C): -3.72 kcal/mol | solvation free energy, 298 K (in CCCCN(C=O)CCCC): -3.27 kcal/mol | solvation free energy, 298 K (in CNC(C)=O): -3.23 kcal/mol | solvation free energy, 298 K (in O): -0.9 kcal/mol

SMILES: CC(N)C(=O)C1OS(=O)OCC2C1C1(Cl)C(Cl)=C(Cl)C2(Cl)C1(Cl)Cl (stereo unspecified)
solvation free energy, 298 K (in CCCCCCCCO): -11.5 kcal/mol

SMILES: Nc1cccc2ccccc12
solvation free energy, 298 K (in CCCCCC): -8.87 kcal/mol | solvation free energy, 298 K (in CCCCCCCC): -8.82 kcal/mol | solvation free energy, 298 K (in O): -7.4 kcal/mol

SMILES: O=C1CCCCC1
solvation free energy, 298 K (in CCCCCC): -4.98 kcal/mol | solvation free energy, 298 K (in CCCCCCC): -5.18 kcal/mol | solvation free energy, 298 K (in CCCCCCCCCCCCCCCC): -4.97 kcal/mol | solvation free energy, 298 K (in ClC(Cl)(Cl)Cl): -6.23 kcal/mol | solvation free energy, 298 K (in ClCCCl): -6.78 kcal/mol | solvation free energy, 298 K (in O): -4.91 kcal/mol

SMILES: CN(C)N=O
solvation free energy, 298 K (in CC(C)CC(C)(C)C): -3.83 kcal/mol | solvation free energy, 298 K (in O): -6.02 kcal/mol

SMILES: O=C1C=CC(=O)C=C1
solvation free energy, 298 K (in O): -6.5 kcal/mol

SMILES: CCCOC(=O)c1ccccc1C(=O)OCCC
solvation free energy, 298 K (in O): -7.56 kcal/mol

SMILES: CCCCC(C)(C)O
solvation free energy, 298 K (in CCCCCCCC): -5.29 kcal/mol | solvation free energy, 298 K (in CCCCCCCCCC): -5.22 kcal/mol

SMILES: CCCCCCN
solvation free energy, 298 K (in CCCCCCC): -5.51 kcal/mol | solvation free energy, 298 K (in O): -4 kcal/mol

SMILES: CN(C)C(=O)Nc1ccc(Cl)c(Cl)c1
solvation free energy, 298 K (in CC(C)CCO): -14.6 kcal/mol | solvation free energy, 298 K (in CCCC(C)O): -14.5 kcal/mol | solvation free energy, 298 K (in CCCCCl): -13.3 kcal/mol | solvation free energy, 298 K (in CCCCOC(C)=O): -14.5 kcal/mol | solvation free energy, 298 K (in CCCCOCCCC): -12.6 kcal/mol | solvation free energy, 298 K (in CCOC(C)=O): -14.6 kcal/mol | solvation free energy, 298 K (in COC(C)=O): -14.6 kcal/mol | solvation free energy, 298 K (in ClC(Cl)(Cl)Cl): -12.4 kcal/mol | solvation free energy, 298 K (in ClC(Cl)Cl): -14.5 kcal/mol | solvation free energy, 298 K (in ClCCCl): -14.3 kcal/mol | solvation free energy, 298 K (in ClCCl): -14.2 kcal/mol | solvation free energy, 298 K (in Clc1ccccc1): -13.6 kcal/mol | solvation free energy, 298 K (in O): -10.9 kcal/mol

SMILES: OCC1OC(O)C(O)C(O)C1O (stereo unspecified)
solvation free energy, 298 K (in O): -25.5 kcal/mol

SMILES: CCCCCCCCCCCCCCCCCCCCCCCC
solvation free energy, 298 K (in CC(=O)N(C)C): -16.4 kcal/mol | solvation free energy, 298 K (in CC(C)(C)O): -14.6 kcal/mol | solvation free energy, 298 K (in CC(C)O): -13.6 kcal/mol | solvation free energy, 298 K (in CCC(C)=O): -14.8 kcal/mol | solvation free energy, 298 K (in CCCCCCCCCCO): -15.2 kcal/mol | solvation free energy, 298 K (in CCCCCCO): -14.2 kcal/mol | solvation free energy, 298 K (in CCCCCO): -14.1 kcal/mol | solvation free energy, 298 K (in CCCCO): -13.9 kcal/mol | solvation free energy, 298 K (in CCCCOC(C)=O): -15.4 kcal/mol | solvation free energy, 298 K (in CCCO): -13.8 kcal/mol | solvation free energy, 298 K (in CCO): -13.4 kcal/mol | solvation free energy, 298 K (in CN(C)C=O): -16.4 kcal/mol | solvation free energy, 298 K (in CO): -12.3 kcal/mol | solvation free energy, 298 K (in COC(C)(C)C): -16.3 kcal/mol | solvation free energy, 298 K (in ClCCl): -16 kcal/mol | solvation free energy, 298 K (in O): 5.24 kcal/mol

Now from value to compound:

solvation free energy, 298 K (in O): -0.16 kcal/mol
SMILES: C=C(C)C1CCC2(C)CCC=C(C)C2C1 (stereo unspecified)

solvation free energy, 298 K (in CCCCCC): -7.72 kcal/mol | solvation free energy, 298 K (in CCCCCCC): -7.87 kcal/mol | solvation free energy, 298 K (in CCCCCCCC): -7.76 kcal/mol | solvation free energy, 298 K (in CCCCCCCCCC): -7.76 kcal/mol
SMILES: CC(=O)CC(=O)c1ccccc1

solvation free energy, 298 K (in CCCO): -11.1 kcal/mol
SMILES: COC(=O)c1ccc(N)cc1

solvation free energy, 298 K (in O): -1.38 kcal/mol
SMILES: Cc1cccs1

solvation free energy, 298 K (in O): -3.51 kcal/mol
SMILES: CCCCOC(=O)c1ccccc1O

solvation free energy, 298 K (in CC(C)CC(C)(C)C): -6.71 kcal/mol | solvation free energy, 298 K (in O): -3.91 kcal/mol
SMILES: COC(=O)c1ccccc1

solvation free energy, 298 K (in CCC(C)O): -17 kcal/mol | solvation free energy, 298 K (in CCCCCCO): -16.7 kcal/mol | solvation free energy, 298 K (in CCCCCO): -16.9 kcal/mol | solvation free energy, 298 K (in CCCCO): -17.1 kcal/mol | solvation free energy, 298 K (in CCCO): -17.2 kcal/mol
SMILES: O=C(O)CCCCCCCCC(=O)O

solvation free energy, 298 K (in O): -7.32 kcal/mol
SMILES: CCCCCCCCCCCCCC(=O)OCC

solvation free energy, 298 K (in O): -17.8 kcal/mol
SMILES: Cc1cc(NS(=O)(=O)c2ccc(N)cc2)no1

solvation free energy, 298 K (in O): -3.78 kcal/mol
SMILES: c1ccc2c(c1)Cc1ccccc1C2

solvation free energy, 298 K (in CC(C)CO): -12.2 kcal/mol | solvation free energy, 298 K (in CC(C)O): -12.2 kcal/mol | solvation free energy, 298 K (in CCC(C)O): -12.5 kcal/mol | solvation free energy, 298 K (in CCCCO): -12.4 kcal/mol | solvation free energy, 298 K (in CCCO): -12.4 kcal/mol | solvation free energy, 298 K (in CCO): -12.4 kcal/mol | solvation free energy, 298 K (in CO): -12.5 kcal/mol
SMILES: O=C(Oc1ccccc1)c1ccccc1O
